Assay results from patent US6413967B1, “Inhibition of novel calcium entry pathway in electrically non-excitable cells acting as an anti-proliferative therapy” (The University of Virginia Patents Foundation, priority 1995, dated 2002).

What was measured:
[1] = system: NVG current in Jurkat cells; test: perforated patch clamp, non-voltage gated (NVG) current; assay type: cell-based, human; conditions: membrane potential −60 mV, 300 nM thapsigargin, amiloride 100 μM, MnCl2 300 μM, NiCl2 1 mM, W-7 30 μM, NDGA 10 μM
Experimental: All recordings were performed using the perforated patch method (Horn et al, J. Gen. Physiol. (1988) 92:145) of the gigaseal patch clamp technique (Hammil et al, Pflugers Arch (1981) 391:85) with microelectrodes of 5-10 megohm series resistance. In all solutions for voltage clamp, K^+ was replaced with Cs^+ to block outward K^+ currents (Fox et al, J. Physiol. (Lond.) (1987) 392:149). The bath solution contained (in mM): NaCl, 155; CsCl, 4.5; CaCl2, 2; MgCl2, 1; D-glucose, 5; HEPES, 10 (pH 7.4 with NaOH). The pipette solution contained (in mM): CsCl, 55; Cesium methanesulfonate, 70; CaCl2, 1; MgCl2, 7; HEPES, 10 (pH 7.3 with NaOH). Nystatin was made as a stock solution of 6 mg/100 μl DMSO, and 2 μl of the stock was added to 1 ml of the pipette solution for use. Both pipette and bath solutions were 290-300 mOsm. Experiments were performed on cells at room temperature using the Axopatch-1D patch clamp (Axon Instruments, Foster City, Calif.) after correction of junction potentials and leak subtraction. Records were low-pass filtered at 500 Hz, and the data were collected, stored and analyzed using the pClamp software program (Axon Instruments). For the non-voltage gated current traces, data is presented either as the tracing from a chart recorder or from the digital data in which the current was measured at 5 second intervals and plotted as individual points.

[2] = system: IL-2 production by Jurkat cells; test: interleukin-2 production with CT-EV bioassay; assay type: cell-based, human
Experimental: Jurkat cells were suspended at a concentration of 2×10^6 cells/ml in serum-free RPMI-1640 containing 100 U/ml penicillin and 100 μg/ml streptomycin. Cells were treated for 15 min with the appropriate compound to be tested prior to stimulation with 1 μg/ml PHA plus 10 nM PDB (calcium-independent) or with PHA alone (calcium dependent). The cells were then incubated for 2 h at 37° C. Following the 2 h stimulation period, the cells were washed twice with RPMI-1640 supplemented with 5% FBS with 5 min incubations between washes and were resuspended at 2×10^6 cells/ml. The cell suspensions were placed in wells of 24 well plates and were incubated at 37° C. for 24 h. At the end of the incubation, the suspensions were collected, the cells were pelleted and the supernatant was stored at 4° C. for later assay for IL-2 levels. […] Standard curves were generated by addition of known amounts of recombinant human IL-2 (BioWhittaker) to allow determination of IL-2 content in each sample. Plates were then incubated at 37° C. for 48 h. To determine proliferation of CTEV cells, 1 μCi of [^3H]-Thymidine (6.7 Ci/mmol; New England Nuclear) was added to each well for the final 16 hours of the assay and at 48 h the cells were harvested and incorporated ^3H was counted by liquid scintillation counting.

[3] = system: [Ca^2+]i in Jurkat T cells; test: receptor-stimulated Ca2+ influx in Jurkat T cells (anti-CD3 mAb OKT3); assay type: cell-based, human; conditions: effect the same post- and pre- T cell receptor stimulation; 10 or 30 μM drug
Experimental: Initially, all drugs are screened using Jurkat T cells incubated with indo-1/AM as outlined below. In the event that there is an effect of the drug on the maximum [Ca^2+]i reached following treatment of the cells with the anti-CD3 mAb […], the drug is evaluated for any effects on the spectral characteristics of indo-1 as outlined in Haverstick and Gray, Mol. Biol. Cell (1993) 4:173. If there is an effect of the drug on the spectral characteristics of indo-1 , the drug is further examined for spectral effects on the combination of fura-red and fluo-3. If there is no effect of the drug on the fura-red/fluo-3 combination, the drug is examined for effects on the maximum [Ca^2+]i reached following OKT3 treatment of cells incubated with 5 μM fura-red and […] as outlined below.
Jurkat cells are incubated in RPMI-1640 plus 5% fbs in the presence of the acetoxymethyl ester of either indo-1 (1 μM) or the combination of fura-red (5 μM) with fluo-3 (1 μM) for one hour at 37° C. Cells are washed three times in buffer A [[…] 4-(2-hydroxyethyl)-1-piperazine ethanesulfonic acid (HEPES), pH 7.4, 3 MM KCl, 1 mM MgCl2, 1 mM CaCl2, 140 mM NaCl, 0.1% glucose] containing 1% fbs and suspended to a final concentration of 1×10^6/ml. Cells are then placed in the 37° C. jacketed cell holder of the SLM 8000C. Antigen receptor engagement is mimicked by the addition of the anti-CD3 monoclonal antibody OKT3 (Gray et al, J. Exp. Med. (1988) 167:1963; Gray et al, J. Immunol. 142:1631). The effect of drug added prior to receptor stimulation or at the plateau phase of Ca^2+ entry is determined as follows:
Prior drug: 10 or 30 μM drug @ 30 seconds, 1 μg/ml OKT3 at 90 seconds
Post drug: 1 μg/ml OKT3 at 30 second, 10 or 30 μM drug @ 120 seconds

[4] = system: MDA-468 human breast cancer cells; test: MDA-468 cell proliferation, tetrazolium dye; assay type: cell-based; conditions: human breast cancer cell proliferation, 48 hours
Experimental: The effect of various drugs on the proliferation of Jurkat T cells, MDA-468 human breast cancer cells and PC3 human prostate cancer cells was determined by incubating the cells with the indicated concentrations of drug for 48 hours. The number of viable cells remaining at the end of the incubation period was evaluated using the procedure outlined in Example 4.
Cells are plated in triplicate in a 96-well flat-bottomed plate (Jurkat: 5e4 cells/well in RPMI-1640 plus 5% fbs; MDA468: 2.5e4 per well in DMEM plus 5% fbs and 11 μg/ml insulin) in the absence (control) or presence of drug at 3, 10, 30, and 100 μM. An additional control of 100 μM drug in RPMI-1640 plus 5% fbs or DMEM plus 5% fbs and 11 μg/Ml insulin with no cells is included with each run to control for possible drug interactions with the dye. The plate is then placed in a 5% CO2 37° C. incubator for 44 to 48 hours. 20 μl of dye solution containing a tetrazolium dye (3-(4,5-dimethylthiazol-2-yl)-5-(3-carboxymethoxyphenyl)-2-(4-sulfophenyl)-2H-tetrazolium, Owen's reagent) plus coupling reagent (phenazine methosulfate) is added to each well, the plate is returned to the incubator, and the absorbance at 490 nm is read using an ELISA plate reader 3 to 4 h (Jurkat cells) or 2 to 3 h (MDA-468 cells) later. All data are presented as percent of control (no drug addition). With this protocol, it is possible to determine the effect of 5 drugs at 4 concentrations in a single 96-well plate as outlined below: […]

Structure (SMILES): CC(Cc1ccc(O)c(O)c1)C(C)Cc1ccc(O)c(O)c1 (centres unmarked) [NDGA, 4,4′-(2,3-dimethyl-1,4-butanediyl)bis[1,2-benzenediol]]
- effect on the thapsigargin-induced NVG current [1]: no effect
- effect on IL-2 secretion, Ca^2+-dependent stimulation [2]: suppressed
- effect on IL-2 secretion, stimulus not initially requiring extracellular Ca^2+ [2]: little effect
- T cell [Ca^2+]i [3]: ↓
- MDA PROLIF [4]: ↓
